# Reference: PubChem BioAssay AID1645864 (Buhrlage Lab, Dana-Farber Cancer Institute and Novartis …, 2021)
# Activity calls are given as the source filed them.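 Rule for the calls: active = maximal inhibition of USP17 at or above 30% in the confirmation dose-response, a value not among the printed readouts; inactive = the rest.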
# Target: Ubiquitin carboxyl-terminal hydrolase 17-like protein 5 (Homo sapiens) (UniProt A8MUK1)
# Assay: ubiquitin-specific protease 17 DUB inhibitors, concentration-effect assay, cell-free, verification of initial screening actives (AID 1645864)
# Conditions: purified USP17, ubiquitin-rhodamine cleavage fluorescence, 3 h
# Ubiquitin carboxyl-terminal hydrolase 17-like protein 5 (Homo sapiens), sequence (A8MUK1 whole entry, looked up): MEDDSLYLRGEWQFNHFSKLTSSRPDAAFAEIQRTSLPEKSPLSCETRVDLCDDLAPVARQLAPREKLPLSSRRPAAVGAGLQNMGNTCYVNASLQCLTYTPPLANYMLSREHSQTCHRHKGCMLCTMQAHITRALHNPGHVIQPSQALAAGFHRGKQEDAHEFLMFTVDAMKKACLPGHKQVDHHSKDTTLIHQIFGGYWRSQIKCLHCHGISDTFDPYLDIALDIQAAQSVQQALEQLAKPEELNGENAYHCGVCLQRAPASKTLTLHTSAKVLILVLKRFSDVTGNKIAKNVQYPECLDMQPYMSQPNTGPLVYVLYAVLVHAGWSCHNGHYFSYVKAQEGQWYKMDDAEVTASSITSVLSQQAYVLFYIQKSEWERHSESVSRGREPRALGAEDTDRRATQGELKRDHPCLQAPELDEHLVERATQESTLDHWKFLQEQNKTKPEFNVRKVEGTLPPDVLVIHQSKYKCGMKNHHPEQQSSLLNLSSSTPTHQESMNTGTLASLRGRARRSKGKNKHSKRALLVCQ
row,Structure (SMILES),IC50
1,Cc1ccc(C)c(CSC2=NCCN2C(=O)c2ccco2)c1,> 50 µM (inactive)
2,Cc1nnc(Sc2cc(C(=O)NCCN3CCCC3)c3ccccc3n2)s1,30 µM
3,COc1ccc(NC(=O)C2c3ccccc3C(=O)N(C3CCCC3)C2c2cccs2)cc1OC (configuration not stated),47.1 µM
4,O=C(CCCn1c(=O)[nH]c2cc(Cl)ccc2c1=O)N1CCc2ccccc2C1,21.5 µM
5,CCN1CCCC1CN(Cc1cc2cc(OC)ccc2[nH]c1=O)C(=O)NCc1ccccc1 (configuration not stated),> 50 µM (inactive)
6,COc1cccc(-n2cnc3cc(C(=O)NC4CC4)ccc3c2=O)c1,15 µM
7,Cn1c(=O)c2cc(C(=O)Nc3ccc(F)cc3)cnc2n(C)c1=O,22.9 µM
8,COc1ccc(-n2nnc3c(SCC(=O)Nc4cc(C)on4)ncnc32)cc1,> 50 µM (inactive)
9,Cc1cc(C(=O)N2CCOC3(CC=CCN(CCc4ccccc4)C3=O)C2)n2nccc2n1 (configuration not stated),> 50 µM (inactive)
10,COc1c(O)cc(CC(=O)O)c(C(C)=O)c1O,11.1 µM
11,Cc1cccc(C(=O)N2CCc3cc(-c4nc(NC(=O)CN5CCc6ccccc6C5)sc4C)ccc32)c1,> 50 µM (inactive)
12,O=C(O)COc1ccccc1/C=C1\CCc2c1nc1ccccc1c2C(=O)O,> 50 µM (inactive)
13,Cc1cccc(NC(=O)CSc2nnc(-c3n[nH]c4c3CCC4)n2N)c1C,18.1 µM
14,COCCCNC(=O)Cn1c(=O)n(Cc2ccc(C(=O)NCc3ccccc3OC)cc2)c(=O)c2ccccc21,> 50 µM (inactive)
15,Cc1ccc(NCc2cc3c(C(C)(C)C)nn(-c4ccc(Cl)cc4)c3[nH]c2=O)cc1,15.7 µM
16,O=C(Cn1nc2c3c4c(sc3ncn2c1=O)CCCCC4)Nc1ccc(Cl)cc1F,2.08 µM
17,Cc1nc(-c2noc3ccc(C(=O)Nc4cccnc4)cc23)cs1,42.5 µM
18,Cc1ccc2c(c1)c(=O)c(C(=O)c1ccccc1)cn2CC(=O)Nc1ccc2c(c1)OCCO2,3.16 µM
19,O=C(CCn1c(=O)c2sccc2n(CC(=O)OCc2ccccc2)c1=O)NCc1ccc2c(c1)OCO2,14.1 µM
20,Oc1ccc(-c2nc3cnccn3c2NCCc2ccccc2)c(O)c1,> 50 µM (inactive)
21,O=C(OCc1ccc(Br)cc1)c1ccc2ccccc2n1,> 50 µM (inactive)
22,Cc1c(-c2nsc(NC(=O)c3ccc(Cl)cc3)n2)nnn1-c1ccccc1F,0.674 µM
23,Nc1ccccc1SCc1noc(-c2cccs2)n1,> 50 µM (inactive)
24,CCOc1ccc(C(=O)Cn2c(=O)n(CC3CCCO3)c(=O)c3cc(OC)c(OC)cc32)cc1Cl (configuration not stated),17.7 µM
25,O=C(Cn1c(=O)n(CCC(=O)N2CC=C(c3ccccc3)CC2)c(=O)c2ccccc21)NCc1ccco1,31.2 µM
26,O=C(Nc1cc(Cl)cc(Cl)c1)c1csnn1,22.4 µM

row,Structure (SMILES),IC50
1,Cc1noc(C)c1COc1cccc(C(=O)Nc2cc(Cl)ccc2-n2cncn2)c1,> 50 µM (inactive)
2,COc1ccc(CCNC(=O)c2ccc3ccccc3c2)cc1OC,> 50 µM (inactive)
3,O=C(Nc1cccc(N2CCCC2=O)c1)c1cccc2cccnc12,21.9 µM
4,O=C(NCc1nc(-c2ccc3c(c2)[nH]c(=O)n3C2CCCC2)no1)c1ccccc1,> 5 µM (inactive)
5,COc1ccc(-c2cnnn2-c2ccc(NC(=O)c3c(F)cccc3F)cc2)cc1OC,> 50 µM (inactive)
6,Cc1nn(CC(=O)Nc2ccc(Br)c3cccnc23)c(=O)c2ccccc12,12.7 µM
7,COc1cc(Cl)ccc1Nc1ncc(C(=O)Nc2cc(OC)c(OC)c(OC)c2)c2ccccc12,< 0.05 µM
8,COc1cc(Cl)ccc1C(=O)Nc1cccc(-n2cnnn2)c1C,4.48 µM
9,Cc1ccc(NC2=NC(c3ccco3)n3c(nc(C)cc3=O)N2)c(C)c1 (configuration not stated),4.62 µM
10,CCOc1ccc(N2C(=O)c3ccccc3C2C(=O)NCc2ccccc2OC)cc1 (configuration not stated),45.8 µM
11,COC(=O)c1cc(C#N)c(NCc2ccccc2)nc1C,13.4 µM
12,CCn1ccc2c(cc(C(=O)Nc3cccc(OC)c3)n2C)c1=O,> 50 µM (inactive)
13,Cc1c(-c2nnc(-c3ccccn3)o2)nnn1-c1cccc(Cl)c1,35.1 µM
14,O=C(NC(Cc1ccccc1)c1nc2ccccc2[nH]1)C1CC1 (configuration not stated),49.7 µM
15,COCCCn1c(C(=O)Nc2ccccc2OC)cc2c(=O)n3ccccc3nc21,12.4 µM
16,CCC(=O)Nc1cccnc1-c1ccc(C(=O)Nc2cccc(OC)c2)cc1,> 50 µM (inactive)
17,Cc1cc(C)cc(-n2ccnc(SCC(=O)Nc3cccc(Cl)c3)c2=O)c1,28.3 µM
18,COc1ccc(CCNC(=O)c2cc3ccccc3s2)cc1OC,> 50 µM (inactive)
19,O=C(Nc1ccccc1Sc1ncc(-c2ccc(Cl)cc2)cn1)c1ccco1,5.78 µM
20,O=c1c(Nc2cccc(F)c2)nc2ccncc2n1Cc1ccccc1,12.5 µM
21,COc1ccc(-c2[nH]c3ccccc3c2SCCNC(=O)c2ccc(S(=O)(=O)N3CCOCC3)cc2)cc1,37.4 µM
22,CCOC(=O)c1cnn(-c2ccc(C(=O)Nc3ccc(C)c(Cl)c3)cc2)c1N,2.35 µM
23,CCN(C(=O)c1cc2c(s1)-c1ccccc1OC2)c1ccccc1F,> 50 µM (inactive)
24,COc1ccc(NC(=O)C2CC(=O)Nc3c(-c4ccc(Cl)cc4)cnn32)c(OC)c1 (configuration not stated),9.36 µM
25,Cc1c(-c2nn3c(-c4ccco4)nnc3s2)cccc1[N+](=O)[O-],3 µM
26,Cc1ccc(-c2nc(Cn3cnc4ccccc4c3=O)cs2)cc1,7.32 µM

row,Structure (SMILES),IC50
1,COc1cccc(-n2nnc(C(=O)Nc3ccc(C)c(C)c3)c2C)c1,> 50 µM (inactive)
2,N#Cc1ccccc1Cn1c(=O)n(CCCCC(=O)NCc2ccco2)c(=O)c2ccccc21,46.3 µM
3,O=C(CCCCn1c(=O)[nH]c2ccccc2c1=O)Nc1cccc(Cl)c1,19.4 µM
4,Cn1c(=O)c(C(=O)CN2CCN(c3ccc(O)cc3)CC2)c(N)n(Cc2ccccc2)c1=O,39.5 µM
5,COCC(=O)Nc1cc(F)c2nc(N3CCOCC3)ccc2c1,33.8 µM
6,Cc1cc(CSc2ncccc2C(=O)Nc2ccnn2Cc2cccnc2)no1,> 50 µM (inactive)
7,C=C1CCC2[C@](C)(CCC[C@]2(C)C(=O)OC)[C@H]1CCc1ccoc1C[N+](C)(C)Cc1ccccc1 (some centres not stated),> 50 µM (inactive)
8,O=C(COc1ccc(Cl)cc1)N1CCc2cc3ccccc3nc21,2.41 µM
9,O=C(Nc1cc(F)ccc1F)c1ccn(COc2ccc(F)c(Cl)c2)n1,38.4 µM
10,COc1ccc(-n2nnc(C(=O)Nc3ccccc3)c2N)cc1,26.8 µM
11,COc1ccc(OC)c(NC(=O)c2ccc(-n3nnnc3SC)cc2)c1,29.9 µM
12,Cc1c(S(=O)(=O)NC2CCCCNC2=O)sc2ccc(Cl)cc12 (configuration not stated),43.1 µM
13,Cc1nn(Cc2ccccc2)c(C)c1C(=O)NC1CCCc2ccccc21 (configuration not stated),> 50 µM (inactive)
14,COc1ccc(CCNC(=O)COc2ncnc3oc(C)c(C)c23)cc1OC,> 50 µM (inactive)
15,COc1cccc(Cn2nc3n(CC(C)C)c(=O)c4ccc(C(=O)NCC(C)C)cc4n3c2=O)c1,6.84 µM
16,O=C(Cn1c(=O)n(Cc2ccc3c(c2)OCO3)c(=O)c2ncccc21)c1ccc(Cl)cc1,33 µM
17,O=c1c2ccccc2ncn1C1CCN(S(=O)(=O)c2ccccc2F)CC1,28.9 µM
18,COc1ccc(NC(=O)CC(=O)c2ccc([N+](=O)[O-])cc2)cc1S(=O)(=O)Nc1ccc(Cl)cc1,24.5 µM
19,CNC(=O)C1CN(C(=O)c2ccc(OC)cc2)CC12CCCC2 (configuration not stated),> 50 µM (inactive)
20,O=c1sc2ccccc2c(=O)n1Cc1cccc(C(F)(F)F)c1,> 50 µM (inactive)
21,COc1ccccc1OCCNC(=O)c1cc(C2CC2)nc2c1cnn2C(C)C,> 50 µM (inactive)
22,COc1ccc(Cn2cnc3c([nH]c4ccc(Br)cc43)c2=O)cc1,0.778 µM
23,O=C(CN1C(=O)NC2(CCCCC2)C1=O)Nc1ccc([N+](=O)[O-])cc1,32.8 µM
24,COc1ccc(C(C(=O)NC2CCCCC2)N(C(=O)CCCC(=O)Nc2ccccn2)c2ccccc2C)cc1 (configuration not stated),22.5 µM
25,CSc1ncc(C(=O)NC(C)c2ccccc2)c(-c2ccccc2)n1 (configuration not stated),20.5 µM
26,COc1cccc(CNC(=O)C2=Cc3cccc(OC)c3OC2)c1,> 50 µM (inactive)

row,Structure (SMILES),IC50
1,Cc1nc2c3ccccc3nc(NCc3ccc4c(c3)OCO4)n2n1,33.8 µM
2,Cc1ccc2c(c1)[C@]1(C(=O)N2)[C@@H]2C(=O)N(c3cccc(C(F)(F)F)c3)C(=O)[C@@H]2C2CCCN21 (some centres not stated),> 50 µM (inactive)
3,N#Cc1cn(CC(=O)N2CCc3ccccc32)c2ccccc12,47.4 µM
4,N#Cc1ccc(NC(=O)COC(=O)c2ccc3ccccc3n2)cc1,> 50 µM (inactive)
5,CC(C)Cn1cc(OC(=O)c2ccc(F)cc2)c2c1nc(-c1ccc(F)cc1)n1c3ccccc3nc21,> 50 µM (inactive)
6,Cc1ccc([N+](=O)[O-])cc1S(=O)(=O)Nc1cc2sc(=O)oc2c2ccccc12,3.44 µM
7,CCOc1ccc(CCNC(=O)CCC(=O)Nc2ccc3nc(N4CCN(C)CC4)cc(C)c3c2)cc1OCC,> 50 µM (inactive)
8,Cc1cc(C(=O)Nc2cc(C)n(Cc3ccc(Cl)cc3)n2)no1,> 50 µM (inactive)
9,O=C(c1cccnc1)N1CCC2(CC1)CC1(CO2)Nc2ccccc2-n2cccc21 (configuration not stated),21.4 µM
10,COc1ccc(NC(=O)COc2cc(CSc3ccccc3)ncc2OC)cc1,43.7 µM
11,CCCc1nc2sc3c(NC4CCCCC4)ncnc3c2c2c1CCC2,> 50 µM (inactive)
12,COc1ccc(S(=O)(=O)N(C)Cc2cccs2)cc1OC,> 50 µM (inactive)
13,COc1cccc2c1OCC(C(=O)NCc1ccc(F)cc1)=C2,> 50 µM (inactive)
14,CCOC(=O)c1c(C)nc2n(Cc3ccccc3)c3ccccc3n12,23 µM
15,O=C(OCCCN1C(=O)c2cccc3c(N4CCCCC4)ccc(c23)C1=O)c1ccccn1,> 50 µM (inactive)
16,CCOc1ccccc1C(=O)Oc1ccc2c(C)cc(=O)oc2c1,26.1 µM
17,Cn1c(CCNC(=O)c2[nH]nc3c2CCc2ccccc2-3)nc2ccccc21,32.8 µM
18,CCC(=O)OCc1cnc(C)c2oc(=O)c(-c3nc(-c4ccccc4)no3)cc12,> 50 µM (inactive)
19,CC(C)c1nc2sc3c(NCc4ccco4)ncnc3c2c2c1CCC2,> 50 µM (inactive)
20,COc1ccc(C(=O)CSc2ccc3nnc(CCNC(=O)c4ccc(OC)cc4)n3n2)cc1,> 50 µM (inactive)
21,COc1ccc2nc(Nc3ncc4c(n3)CCCC4=O)nc(C)c2c1,> 5 µM (inactive)
22,COc1ccc(NC(=O)C2CC(=O)Nc3cc(-c4ccccc4)nn32)cc1 (configuration not stated),22.9 µM
23,O=[N+]([O-])c1cccc(CSc2nnc(/C=C/c3ccccc3)o2)c1,> 50 µM (inactive)
24,O=C(NCc1ccccc1Cl)c1ccc2cn[nH]c2c1,> 50 µM (inactive)
